Source: patent publication US8106197B2, “Aminoheteroaryl compounds as protein kinase inhibitors” (Pfizer Inc., priority 2003, dated 2012)

target: T1, HGFR (Homo sapiens, UniProt P08581); experiment: HGFR continuous-coupled spectrophotometric assay; format: biochemical; conditions: not given
T1 construct: purchased Upstate 14-526
T1 sequence (P08581 974-1390 limits assumed): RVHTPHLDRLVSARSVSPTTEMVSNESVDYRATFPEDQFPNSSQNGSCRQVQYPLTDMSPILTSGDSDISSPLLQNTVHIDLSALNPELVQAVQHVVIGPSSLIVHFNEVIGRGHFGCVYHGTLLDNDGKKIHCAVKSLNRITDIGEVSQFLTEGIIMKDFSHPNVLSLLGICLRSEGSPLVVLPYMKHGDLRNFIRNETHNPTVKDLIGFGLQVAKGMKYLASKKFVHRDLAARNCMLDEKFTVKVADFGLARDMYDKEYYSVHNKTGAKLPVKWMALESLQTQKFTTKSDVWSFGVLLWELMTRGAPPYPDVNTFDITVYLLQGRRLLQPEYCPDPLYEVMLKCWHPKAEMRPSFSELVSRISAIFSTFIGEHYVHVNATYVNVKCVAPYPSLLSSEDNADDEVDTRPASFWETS

Row | SMILES | % inhibition
1 | Nc1ncc(-c2ccc(C(=O)N3CCC(N4CCCC4)CC3)cc2)cc1OCc1ccc(C(F)(F)F)cc1C(F)(F)F | % inhibition = 12
2 | Cc1nc(COc2cc(-c3ccc(C(=O)N4CCC(N5CCCC5)CC4)cc3)cnc2N)n(C)n1 | % inhibition = 14
3 | Nc1ncc(-c2ccc(C(=O)N3CCC(N4CCCC4)CC3)cc2)cc1OCc1ccc2ccc(Cl)cc2n1 | % inhibition = 24
4 | Nc1ncc(-c2ccc(C(=O)N3CCC(N4CCCC4)CC3)cc2)cc1OCc1cc(F)cc(F)c1 | % inhibition = 14
5 | COc1c(C)cnc(COc2cc(-c3ccc(C(=O)N4CCC(N5CCCC5)CC4)cc3)cnc2N)c1C | % inhibition = 20
6 | CCOC(=O)CCNC(=O)c1cccc(COc2cc(-c3ccc(C(=O)N4CCC(N5CCCC5)CC4)cc3)cnc2N)c1 | % inhibition = 14
7 | Nc1ncc(-c2ccc(C(=O)N3CCC(N4CCCC4)CC3)cc2)cc1OCc1cccc(Br)c1 | % inhibition = 24
8 | Cc1cccc(COc2cc(-c3ccc(C(=O)N4CCC(N5CCCC5)CC4)cc3)cnc2N)c1F | % inhibition = 28
9 | Cc1ccc(F)cc1COc1cc(-c2ccc(C(=O)N3CCC(N4CCCC4)CC3)cc2)cnc1N | % inhibition = 29
10 | Cc1ccnc2nc(COc3cc(-c4ccc(C(=O)N5CCC(N6CCCC6)CC5)cc4)cnc3N)cn12 | % inhibition = 10
11 | Nc1ncc(-c2ccc(C(=O)N3CCC(N4CCCC4)CC3)cc2)cc1OCc1ccc2ccccc2c1Br | % inhibition = 59
12 | Nc1ncc(-c2ccc(C(=O)N3CCC(N4CCCC4)CC3)cc2)cc1OCc1ccc(OCc2ccccc2)cc1 | % inhibition = 49
13 | COc1cc(OC)nc(COc2cc(-c3ccc(C(=O)N4CCC(N5CCCC5)CC4)cc3)cnc2N)n1 | % inhibition = 20
14 | Nc1ncc(-c2ccc(C(=O)N3CCC(N4CCCC4)CC3)cc2)cc1OCc1cc(F)ccc1Br | % inhibition = 24
15 | Cc1cc(C)cc(COc2cc(-c3ccc(C(=O)N4CCC(N5CCCC5)CC4)cc3)cnc2N)c1 | % inhibition = 14

same assay, conditions: Table 3; Ki(μM) or I(%); test concentration not given

Row | SMILES | I(%)
16 | CC(Oc1cc(CNC2CCN(Cc3ccccc3)C2)cnc1N)c1c(Cl)ccc(F)c1Cl (centres unmarked) [Example I-608, 5-[(1-Benzyl-pyrrolidin-3-ylamino)-methyl]-3-[1-(2,6-dichloro-3-fluoro-phenyl)-ethoxy]-pyridin-2-ylamine] | 0
17 | CC(Oc1cc(-c2nccn2C)cnc1N)c1c(Cl)ccc(F)c1Cl (centres unmarked) [Example I-652] | 11

same assay, conditions: Table 5; percent c-MET inhibition at 50 nM

Row | SMILES | inhibition at 0.05 µM [%]
18 | CC(Oc1cc(-c2ccc(C(=O)N3CCCCC3COc3ccccc3)cc2)cnc1N)c1c(Cl)ccc(F)c1Cl (centres unmarked) | 53

same assay, conditions: Table 6; percent c-MET inhibition at 1 μM; read-out: % inhibition

Row | SMILES | inhibition at 1 µM [%]
19 | Nc1ncc(C(=O)N2CCNC(=O)CC2)cc1OCc1c(Cl)cccc1Cl | 31
20 | Nc1ncc(C(=O)NCc2ccccc2OC(F)(F)F)cc1OCc1c(Cl)cccc1Cl | 31
21 | C[C@@H]1CN(C(=O)c2cnc(N)c(OCc3c(Cl)cccc3Cl)c2)C[C@H](C)O1 | 32
22 | Nc1ncc(C(=O)NCc2ccc(O)cc2)cc1OCc1c(Cl)cccc1Cl | 37
23 | Cc1cc(CCC2COC3(CCN(C(=O)c4cnc(N)c(OCc5c(Cl)cccc5Cl)c4)CC3)C2)no1 (centres unmarked) | 19
24 | Nc1ncc(C(=O)NCc2ccc(OC(F)F)cc2)cc1OCc1c(Cl)cccc1Cl | 26
25 | CN1CCN(C(=O)c2cnc(N)c(OCc3c(Cl)cccc3Cl)c2)CC1 | 32
26 | Nc1ncc(C(=O)NCCc2ccc(O)cc2)cc1OCc1c(Cl)cccc1Cl | 34
27 | Nc1ncc(C(=O)N2CCCC(N3CCOCC3)CC2)cc1OCc1c(Cl)cccc1Cl (centres unmarked) | 18
28 | CC(CN(C)C)NC(=O)c1cnc(N)c(OCc2c(Cl)cccc2Cl)c1 (centres unmarked) | 45
29 | Cc1ccc(N2CCN(CCCCNC(=O)c3cnc(N)c(OCc4c(Cl)cccc4Cl)c3)CC2)cc1 | 15
30 | CC(C)OCCNC(=O)c1cnc(N)c(OCc2c(Cl)cccc2Cl)c1 | 46
31 | Nc1ncc(C(=O)N2CCCC(N3CCC(CO)CC3)CC2)cc1OCc1c(Cl)cccc1Cl (centres unmarked) | 20
32 | CC(C)CCNC(=O)c1cnc(N)c(OCc2c(Cl)cccc2Cl)c1 | 26
